Measurements: ChEMBL document CHEMBL6120938, “Covalent small-molecule inhibitors of SARS-CoV-2 Mpro: Insights into their design, classification, biological activity, and binding interactions” (Eur J Med Chem, 2024)
Where a SMILES comes first, the peptide text is derived from it. The star is where a group is joined. Octanoyl = CCCCCCCC(=O)*; Boc = CC(C)(C)OC(=O)*

Tested on: not listed separately
Test: Inhibition of SARS-CoV-2 Main protease
Set-up: species or system Severe acute respiratory syndrome coronavirus 2
Conditions: not given
With `CC(C)C[C@H](NC(=O)O[C@@H](C)c1ccccc1)C(=O)N[C@H](C=O)C[C@@H]1CCNC1=O` the IC50 was 130 nM.
For `O=C(Oc1cncc(Cl)c1)c1cccs1`, the IC50 was 81 nM.
In the case of `CCOC(=O)/C=C/[C@H](C[C@@H]1CCNC1=O)NC(=O)[C@@H](CC(=O)[C@@H](NC(=O)OCc1ccccc1)[C@H](C)OC(C)(C)C)CC(C)O` (stereo partly specified), the IC50 is reported as 151 nM.
Compound `COc1cc(O)c2c(=O)c(O)c(-c3cc(O)c(O)c(O)c3)oc2c1` has an IC50 of 300 nM.
For `COc1cccc2[nH]c(C(=O)N[C@@H](CC(C)C)C(=O)N[C@H](C=O)C[C@@H]3CCNC3=O)cc12`, the IC50 was 130 nM.
For `C=CC(=O)N(c1ccc(C(C)(C)C)cc1)C(C(=O)NCc1ccccc1)c1cccnc1` (stereo unspecified), the IC50 was 2860 nM.
`COc1cccc2[nH]c(C(=O)N[C@@H](CC(C)C)C(=O)N[C@@H](C[C@@H]3CCNC3=O)C(=O)COP(=O)(O)O)cc12` [LUFOTRELVIR] showed an IC50 of 9 nM.
For `CC(C)C[C@H](NC(=O)[C@@H](NC(=O)C1CCCCC1)C(C)C)C(=O)N[C@H](C=O)C[C@@H]1CCCNC1=O`, the IC50 was 240 nM.
Compound `C=CC(=O)N(c1ccc(C(C)(C)C)cc1)C(C(=O)NCCOC)c1cccnc1` (stereo unspecified) has an IC50 of 2860 nM.
For `[2H]c1c([2H])c([2H])c(COC(C)N[C@@H](CC(C)C)C(=O)N[C@H](C=O)C[C@@H]2CCNC2=O)c([2H])c1[2H]` (stereo partly specified), the IC50 was 160 nM.
With `COc1cccc2[nH]c(C(=O)N[C@@H](CC(C)C)C(=O)N[C@@H](C[C@@H]3CCNC3=O)C(=O)CO)cc12` [PF-00835231] the IC50 was 600 nM.
Compound `CC(C)C[C@H](NC(=O)OC(C)(C)C1CCC(F)(F)CC1)C(=O)N[C@@H](C[C@H]1CCNC1=O)C(O)S(=O)(=O)O` (stereo partly specified) has an IC50 of 125 nM.
Work on `CCCCCCNC(=O)n1cc(F)c(=O)[nH]c1=O` [CARMOFUR] yielded an IC50 of 18 nM.
`COc1cccc2[nH]c(C(=O)N3C[C@H]4[C@@H]([C@H]3C(=O)N[C@@H](C[C@@H]3CCNC3=O)C(=O)c3nc5ccccc5s3)C4(C)C)cc12` showed an IC50 of 55 nM.
For `CCCCC1CCC(OC(=O)N[C@@H](CC(C)C)C(=O)N[C@H](C=O)C[C@H]2CCNC2=O)CC1` (stereo partly specified), the IC50 was 130 nM.
`CC(C)C[C@H](NC(=O)OC(c1ccccc1)C1CCC(F)(F)CC1)C(=O)N[C@H](C=O)C[C@H]1CCNC1=O` (stereo partly specified) showed an IC50 of 130 nM.
Work on `C=CC(=O)N(c1ccc(C(C)(C)C)cc1)C(C(=O)NCCc1cccc(F)c1)c1cccnc1` (stereo unspecified) yielded an IC50 of 2860 nM.
`C=CC(=O)N(c1ccc(C(C)(C)C)cc1)C(C(=O)NC(C)(C)C)c1cccnc1` (stereo unspecified) showed an IC50 of 2950 nM.
For `O=C[C@H](C[C@@H]1CCNC1=O)NC(=O)[C@H](CC1CC1)NC(=O)OCc1cccc(F)c1`, the IC50 was 14 nM.
`C=CC(=O)N(c1ccc(C(C)(C)C)cc1)C(C(=O)NC)c1cccnc1` (stereo unspecified) showed an IC50 of 2860 nM.
In the case of `C=CC(=O)N(c1ccc(C(C)(C)C)cc1)C(C(=O)NCCSC)c1cccnc1` (stereo unspecified), the IC50 is reported as 2860 nM.
For `CCOC(=O)/C=C/[C@H](C[C@@H]1CCNC1=O)NC(=O)[C@@H](CC(=O)[C@@H](NC(=O)c1cc(C)on1)C(C)C)Cc1ccc(F)cc1`, the IC50 was 68000 nM.
`COc1cc(O)c2c(c1)O[C@H](c1cc(O)c(O)c(O)c1)[C@@H](O)C2=O` showed an IC50 of 260 nM.
`CC(C)C[C@H](NC(=O)OCc1cccc(F)c1)C(=O)N[C@H](C=O)C[C@@H]1CCNC1=O` gave an IC50 of 130 nM.
With `O=C[C@H](C[C@@H]1CCNC1=O)NC(=O)[C@H](CC1CC1)NC(=O)OCc1ccccc1` the IC50 was 130 nM.

Tested on: SARS-CoV-2
Test: Antiviral activity against SARS-CoV-2 infected in Vero E6 cells assessed as inhibition of viral replication
Format: functional, organism-based
Conditions: Severe acute respiratory syndrome coronavirus 2, Vero C1008
In the case of `COc1cc(O)c2c(=O)c(O)c(-c3cc(O)c(O)c(O)c3)oc2c1`, the EC50 is reported as 8000 nM.
In the case of `CCOC(=O)/C=C/[C@H](C[C@@H]1CCNC1=O)NC(=O)[C@@H](CC(=O)[C@@H](NC(=O)c1cc(C)on1)C(C)C)Cc1ccc(F)cc1`, the EC50 is reported as 1870 nM.
With `COc1cc(O)c2c(c1)O[C@H](c1cc(O)c(O)c(O)c1)[C@@H](O)C2=O` the EC50 was 8000 nM.

Tested on: not listed separately
Test: Inhibition of SARS-Cov-2 Main protease by FRET assay
Set-up: species or system Severe acute respiratory syndrome coronavirus 2
Conditions: not given
In the case of `CCOC(=O)/C=C/[C@H](C[C@@H]1CCNC1=O)NC(=O)[C@H](CC#N)n1cccc(NC(=O)c2cc(C)on2)c1=O`, the IC50 is reported as 101000 nM.
In the case of `CCOC(=O)/C=C/[C@H](C[C@@H]1CCNC1=O)NC(=O)[C@@H](CC(=O)[C@@H](NC(=O)c1cc(C)on1)C(C)C)Cc1ccc(F)cc1`, the IC50 is reported as 47000 nM.

Tested on: not listed separately
Test: Inhibition of recombinant SARS-CoV-2 Wuhan-Hu-1 main protease extracted from Escherichia coli cells using Dabcyl-KTSAVLQSGFRKME-Edans as substrate incubated for 60 mins by FRET assay
Set-up: species or system Severe acute respiratory syndrome coronavirus 2
Conditions: not given
With `CCCCCCCC(=O)NCC(=O)N[C@@H](Cc1ccccc1)C(=O)N[C@H](C=O)Cc1c[nH]cn1` (Octanoyl-Gly-Phe-His-aldehyde) the IC50 was 2370 nM.
Work on `CC(=O)NCC(=O)N[C@@H](Cc1ccccc1)C(=O)N[C@H](C=O)Cc1c[nH]cn1` (Ac-Gly-Phe-His-aldehyde) yielded an IC50 of 2510 nM.
Compound `CC(C)(C)OC(=O)NCC(=O)N[C@@H](Cc1ccccc1)C(=O)N[C@H](C=O)Cc1c[nH]cn1` (Boc-Gly-Phe-His-aldehyde) has an IC50 of 6490 nM.

Target: Replicase polyprotein 1ab (Severe acute respiratory syndrome coronavirus 2, UniProt P0DTD1)
Test: Inhibition of SARS-CoV-2 3CL protease using DabcylKTSAVLQSGFRKME-Edans amide as substrate measured for 1 hrs by FRET assay
Conditions: not given
For `CC(C)C[C@H](NC(=O)OC[C@@H]1C[C@H]1c1cccc(F)c1)C(=O)N[C@H](C=O)CC1CCNC1=O` (stereo partly specified), the IC50 was 140 nM.
`COc1ccccc1[C@@H]1C[C@H]1COC(=O)N[C@@H](CC(C)C)C(=O)N[C@@H](CC1CCNC1=O)C(O)S(=O)(=O)O` (stereo partly specified) gave an IC50 of 140 nM.
With `COc1ccccc1[C@@H]1C[C@H]1COC(=O)N[C@@H](CC(C)C)C(=O)N[C@H](C=O)CC1CCNC1=O` (stereo partly specified) the IC50 was 140 nM.
For `CC(C)C[C@H](NC(=O)OC[C@@H]1C[C@H]1c1cccc(F)c1)C(=O)N[C@@H](CC1CCNC1=O)C(O)S(=O)(=O)O` (stereo partly specified), the IC50 was 140 nM.

Tested on: not listed separately
Test: Inhibition of MERS-CoV 3CLpro by FRET assay
Set-up: species or system Middle East respiratory syndrome-related coronavirus
Conditions: not given
`CC(C)C[C@H](NC(=O)OC[C@@H]1C[C@H]1c1cccc(F)c1)C(=O)N[C@H](C=O)CC1CCNC1=O` (stereo partly specified) gave an IC50 of 70 nM.
Work on `COc1ccccc1[C@@H]1C[C@H]1COC(=O)N[C@@H](CC(C)C)C(=O)N[C@@H](CC1CCNC1=O)C(O)S(=O)(=O)O` (stereo partly specified) yielded an IC50 of 70 nM.
With `COc1ccccc1[C@@H]1C[C@H]1COC(=O)N[C@@H](CC(C)C)C(=O)N[C@H](C=O)CC1CCNC1=O` (stereo partly specified) the IC50 was 70 nM.
`CC(C)C[C@H](NC(=O)OC[C@@H]1C[C@H]1c1cccc(F)c1)C(=O)N[C@@H](CC1CCNC1=O)C(O)S(=O)(=O)O` (stereo partly specified) showed an IC50 of 70 nM.
